Where two headings read alike, the source gives them in different places.
Experiments:
Assay type in all cases: biochemical
Caspase-2 = target: T1, Caspase-2 (Homo sapiens, UniProt P42575); test: Caspase-2 inhibitor screening assay (BioVision kit, VDVAD-AFC); details: for inhibition at 10 µM: read-out: % Inhibition at 10 uM Casp2; for inhibition at 100 µM: read-out: % Inhibition at 100 uM Casp2; for IC50: read-out: IC50 Casp2
T1 construct: mixing the compounds with the respective active caspases; purchased BioVision K152-100
T1 sequence (P42575 170-325 limits assumed): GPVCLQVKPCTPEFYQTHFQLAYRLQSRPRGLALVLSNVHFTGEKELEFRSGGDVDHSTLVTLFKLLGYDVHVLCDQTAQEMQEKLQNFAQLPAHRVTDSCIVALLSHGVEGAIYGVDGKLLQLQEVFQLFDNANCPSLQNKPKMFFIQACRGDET
T1 sequence (P42575 334-452 limits assumed): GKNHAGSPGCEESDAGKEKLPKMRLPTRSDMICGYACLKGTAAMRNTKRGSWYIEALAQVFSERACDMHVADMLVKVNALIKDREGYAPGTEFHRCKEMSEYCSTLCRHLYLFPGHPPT
Description: (§1) The efficacy of an array of compounds as an inhibitor of the activity of Caspases 1 through 10 were assessed by using the respective Caspase Inhibitor Drug Screening Kits (Caspase-1 Catalog #: K151-100, Caspase-2 Catalog #: K152-100, Caspase-3 Catalog #: K153-100, Caspase-4 Catalog #: K154-100, Caspase-5 Catalog #: K155-100, Caspase-6 Catalog #: K156-100, Caspase-7 Catalog #: K157-100, Caspase-8 Catalog #: K158-100, Caspase-9 Catalog #: K159-100, Caspase-10 Catalog #: K160-100, BioVision) following the instructions of the manufacturer. […] Active caspases cleaved their respective synthetic substrates to release free AFC, which was then quantified by fluorometry.
(§2) Briefly, the compounds were first tested at 2 concentrations (10 uM and 100 uM final) to determine if there is a hit. […] Each condition was tested in duplicates. […] For some samples, a smaller range of concentrations was tested depending on the % Inhibition results at 10 uM and 100 uM. Results were summarized in Tables 2, 3, and 4 herein after. Table 2 represents the IC50 values (uM) of the test compounds as inhibitors of the activity of the various caspases.
(§3) (*) RFU (no inhibitor control)—RFU (compound at a specific concentration)
(§4) RFU (no inhibitor control)

Caspase-8 = target: T2, Caspase-8 (Homo sapiens, UniProt Q14790); test: Caspase-8 inhibitor screening assay (BioVision kit, IETD-AFC); details: for inhibition at 10 µM: read-out: % Inhibition at 10 uM Casp8; for inhibition at 100 µM: read-out: % Inhibition at 100 uM Casp8; for IC50: read-out: IC50 Casp8
T2 construct: mixing the compounds with the respective active caspases; purchased BioVision K158-100
T2 sequence (Q14790 217-374 limits assumed): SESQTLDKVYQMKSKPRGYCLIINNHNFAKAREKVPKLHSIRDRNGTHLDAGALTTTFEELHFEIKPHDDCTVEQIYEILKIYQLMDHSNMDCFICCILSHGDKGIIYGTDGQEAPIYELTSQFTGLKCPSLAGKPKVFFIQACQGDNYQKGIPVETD
T2 sequence (Q14790 385-479 limits assumed): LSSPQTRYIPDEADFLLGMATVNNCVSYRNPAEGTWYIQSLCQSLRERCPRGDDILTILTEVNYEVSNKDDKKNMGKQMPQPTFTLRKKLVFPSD
Description: as §1, §2, §3, §4

Caspase-10 = target: T3, Caspase-10 (Homo sapiens, UniProt Q92851); test: Caspase-10 inhibitor screening assay (BioVision kit, AEVD-AFC); details: for inhibition at 10 µM: read-out: % Inhibition at 10 uM Casp10; for inhibition at 100 µM: read-out: % Inhibition at 100 uM Casp10; for IC50: read-out: IC50 Casp10
T3 construct: mixing the compounds with the respective active caspases; purchased BioVision K160-100
T3 sequence (Q92851 220-415 limits assumed): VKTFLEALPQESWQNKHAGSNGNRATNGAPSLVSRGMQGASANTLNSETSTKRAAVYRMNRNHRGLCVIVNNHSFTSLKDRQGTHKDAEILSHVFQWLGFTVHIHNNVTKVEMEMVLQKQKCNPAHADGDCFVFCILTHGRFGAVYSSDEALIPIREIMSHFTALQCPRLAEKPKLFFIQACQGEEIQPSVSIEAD
T3 sequence (Q92851 416-521 limits assumed): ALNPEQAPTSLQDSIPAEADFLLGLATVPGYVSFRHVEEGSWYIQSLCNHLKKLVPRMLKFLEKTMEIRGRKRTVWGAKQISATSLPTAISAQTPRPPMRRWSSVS
Description: as §1, §2, §3, §4

Caspase-4 = target: T4, Caspase-4 (Homo sapiens, UniProt P49662); test: Caspase-4 inhibitor screening assay (BioVision kit, LEVD-AFC); details: for inhibition at 10 µM: read-out: % Inhibition at 10 uM Casp4; for inhibition at 100 µM: read-out: % Inhibition at 100 uM Casp4; for IC50: read-out: IC50 Casp4
T4 construct: mixing the compounds with the respective active caspases; purchased BioVision K154-100
T4 sequence (P49662 81-270 limits assumed): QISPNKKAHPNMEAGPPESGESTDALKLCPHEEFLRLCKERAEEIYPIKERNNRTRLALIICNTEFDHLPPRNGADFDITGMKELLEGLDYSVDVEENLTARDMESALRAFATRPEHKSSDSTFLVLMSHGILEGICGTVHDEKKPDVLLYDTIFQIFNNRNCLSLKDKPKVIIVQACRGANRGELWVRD
T4 sequence (P49662 290-377 limits assumed): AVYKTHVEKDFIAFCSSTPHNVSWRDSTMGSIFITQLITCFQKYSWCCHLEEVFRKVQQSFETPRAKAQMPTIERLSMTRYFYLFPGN
Description: as §1, §2, §3, §4

Caspase-3 = target: T5, Caspase-3 (Homo sapiens, UniProt P42574); test: Caspase-3 inhibitor screening assay (BioVision kit, DEVD-AFC); details: for inhibition at 10 µM: read-out: % Inhibition at 10 uM Casp3; for inhibition at 100 µM: read-out: % Inhibition at 100 uM Casp3
T5 construct: mixing the compounds with the respective active caspases; purchased BioVision K153-100
T5 sequence (P42574 29-175 limits assumed): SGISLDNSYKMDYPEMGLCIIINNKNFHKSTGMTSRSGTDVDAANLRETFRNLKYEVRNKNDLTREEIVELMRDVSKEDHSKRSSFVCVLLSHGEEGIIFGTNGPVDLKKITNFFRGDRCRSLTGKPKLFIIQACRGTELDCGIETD
T5 sequence (P42574 176-277 limits assumed): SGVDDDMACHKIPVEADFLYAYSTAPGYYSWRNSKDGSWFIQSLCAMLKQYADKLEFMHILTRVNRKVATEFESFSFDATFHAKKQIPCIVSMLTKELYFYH
Description: as §1, §2, §3, §4

Caspase-7 = target: T6, Caspase-7 (Homo sapiens, UniProt P55210); test: Caspase-7 inhibitor screening assay (BioVision kit, DEVD-AFC); details: for inhibition at 10 µM: read-out: % Inhibition at 10 uM Casp7; for inhibition at 100 µM: read-out: % Inhibition at 100 uM Casp7; for IC50: read-out: IC50 Casp7
T6 construct: mixing the compounds with the respective active caspases; purchased BioVision K157-100
T6 sequence (P55210 24-198 limits assumed): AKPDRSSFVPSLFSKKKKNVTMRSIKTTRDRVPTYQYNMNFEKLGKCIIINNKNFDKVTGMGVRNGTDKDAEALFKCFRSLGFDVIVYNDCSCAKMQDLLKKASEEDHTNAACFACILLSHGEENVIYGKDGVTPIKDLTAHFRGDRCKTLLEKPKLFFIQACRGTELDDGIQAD
T6 sequence (P55210 207-303 limits assumed): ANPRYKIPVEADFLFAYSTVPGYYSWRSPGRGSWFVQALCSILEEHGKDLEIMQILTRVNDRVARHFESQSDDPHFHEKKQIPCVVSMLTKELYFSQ
Description: as §1, §2, §3, §4

SMILES	inhibition at 10 µM (Caspase-2) [%]	inhibition at 100 µM (Caspase-2) [%]	IC50 (Caspase-2) [µM]	inhibition at 10 µM (Caspase-8) [%]	inhibition at 100 µM (Caspase-8) [%]	IC50 (Caspase-8) [µM]	inhibition at 10 µM (Caspase-10) [%]	inhibition at 100 µM (Caspase-10) [%]	IC50 (Caspase-10) [µM]	inhibition at 10 µM (Caspase-4) [%]	inhibition at 100 µM (Caspase-4) [%]	IC50 (Caspase-4) [µM]	inhibition at 10 µM (Caspase-3) [%]	inhibition at 100 µM (Caspase-3) [%]	IC50 (Caspase-3; read-out: IC50 Casp3) [µM]	inhibition at 10 µM (Caspase-7) [%]	inhibition at 100 µM (Caspase-7) [%]	IC50 (Caspase-7) [µM]	IC50 (Caspase-3; read-out: potency (IC50) against caspase-3) [µM]
CC(C)(C)[C@H](NC(=O)c1ccc2ncccc2n1)C(=O)N1CCCC1C(=O)N[C@H](/C=C/S(C)(=O)=O)CC(=O)O (stereo in doubt) [Compound 8, (1,5-Naphthyridine-2-carbonyl)-t-Leu-Pro-Asp methyl vinyl sulfone]	3	5	> 100	8	23	> 100	27	90	18	88	100	0.63	3	5	> 100	0	0	> 100	
CS(=O)(=O)/C=C/[C@H](CC(=O)O)NC(=O)[C@H](CCC(=O)O)NC(=O)c1ccc2ccccc2n1 [Compound 18, 2-Quinoline carbonyl-Glu-Asp methyl vinyl sulfone]	0	0	> 100	0	0	> 100	14	0	> 100	0	0	> 100	4	2	> 100	0	7	> 100	
CC(C)[C@H](NC(=O)OCc1ccccc1)C(=O)N[C@H](/C=C/S(C)(=O)=O)CC(=O)O [Compound 3, Z-Val-Asp methyl vinyl sulfone]	0	0	> 100	0	23	> 100	15	50	> 100	0	2	> 100	0	5	> 100	0	9	> 100	
CC(C)[C@H](NC(=O)[C@@H](N)Cc1ccc(O)cc1)C(=O)N[C@@H](C)C(=O)N[C@H](/C=C/S(C)(=O)=O)CC(=O)O [Compound 42, Tyr-Val-Ala-Asp methyl vinyl sulfone]	0	0	> 100	12	30	> 100	13	79	34	28	100	17.1	0	0	> 100	0	0	> 100	

Next, values leading:

inhibition at 10 µM (Caspase-2) [%]	inhibition at 100 µM (Caspase-2) [%]	IC50 (Caspase-2) [µM]	inhibition at 10 µM (Caspase-8) [%]	inhibition at 100 µM (Caspase-8) [%]	IC50 (Caspase-8) [µM]	inhibition at 10 µM (Caspase-10) [%]	inhibition at 100 µM (Caspase-10) [%]	IC50 (Caspase-10) [µM]	inhibition at 10 µM (Caspase-4) [%]	inhibition at 100 µM (Caspase-4) [%]	IC50 (Caspase-4) [µM]	inhibition at 10 µM (Caspase-3) [%]	inhibition at 100 µM (Caspase-3) [%]	IC50 (Caspase-3; read-out: IC50 Casp3) [µM]	inhibition at 10 µM (Caspase-7) [%]	inhibition at 100 µM (Caspase-7) [%]	IC50 (Caspase-7) [µM]	IC50 (Caspase-3; read-out: potency (IC50) against caspase-3) [µM]	SMILES
11	66	53.7	22	79	32.5	43	92	12.9	50	100	9.94	68	95	3.4	68	97	6.12	3.41	CS(=O)(=O)/C=C/[C@H](CC(=O)O)NC(=O)[C@H]1CCCN1C(=O)[C@@H](NC(=O)[C@H](CC(=O)O)NC(=O)OCc1ccccc1)c1ccccc1 [Compound 30, Z-Asp-Phenylglycine-Pro-Asp-methyl vinyl sulfone]
12	13	> 100	3	7	> 100	15	14	> 100	0	0	> 100	0	0	> 100	0	0	> 100		CS(=O)(=O)/C=C/[C@H](CC(=O)O)NC(=O)[C@@H](N)CCC(=O)O [Compound 22, Glu-Asp methylsulfone]
7	6	> 100	8	23	> 100	42	93	12.5	85	100	1.56	1	5	> 100	0	0	> 100		CC(C)(C)[C@H](NC(=O)c1ccc2ccccc2n1)C(=O)N1CC[C@@H]1C(=O)N[C@H](/C=C/S(C)(=O)=O)CC(=O)O [Compound 20, 2-Quinoline carbonyl-t-Leu-(Azetidine-2-carbonyl)-Asp methyl vinyl sulfone]
14	18	> 100	3	4	> 100	0	0	> 100	0	4	> 100	0	4	> 100	0	0	> 100		CC(C)(C)OC(=O)CC[C@H](NC(=O)OC(C)(C)C)C(=O)N[C@H](/C=C/S(C)(=O)=O)CC(=O)OC(C)(C)C [Compound 21, Boc-Glu(O—tBu)-Asp (O—tBu)-methyl vinyl sulfone]

Source: US10975119B2, “Selective cysteine protease inhibitors and uses thereof” (Genesis Technologies Limited, priority 2011, dated 2021)
